How the values were obtained:
Format in all cases: functional
[1] = system: U-251; assay: Cytotoxicity against human U251 cells assessed as cell growth at 100 uM after 48 hrs by sulforhodamine B assay relative to control; settings: U-251, 48 h, read-out: Activity
[2] = system: SK-OV-3; assay: Cytotoxicity against human SKOV3 cells assessed as cell growth at 1 uM after 48 hrs by sulforhodamine B assay relative to control; settings: SK-OV-3, 48 h, read-out: Activity
[3] = system: UACC-62; assay: Cytotoxicity against human UACC62 cells assessed as growth inhibition after 48 hrs by sulforhodamine B assay; settings: UACC-62, 48 h
[4] = system: SK-MEL-5; assay: Cytotoxicity against human SK-MEL-5 cells assessed as cell growth at 0.01 uM after 48 hrs by sulforhodamine B assay relative to control; settings: SK-MEL-5, 48 h, read-out: Activity
[5] = system: TK-10; assay: Cytotoxicity against human TK10 cells assessed as cell growth at 0.1 uM after 48 hrs by sulforhodamine B assay relative to control; settings: TK-10, 48 h, read-out: Activity
[6] = system: A498; assay: Cytotoxicity against human A498 cells assessed as cell growth at 0.01 uM after 48 hrs by sulforhodamine B assay relative to control; settings: A498, 48 h, read-out: Activity
[7] = system: SF-268; assay: Cytotoxicity against human SF268 cells assessed as cell growth at 100 uM after 48 hrs by sulforhodamine B assay relative to control; settings: SF-268, 48 h, read-out: Activity
[8] = system: UACC-257; assay: Cytotoxicity against human UACC257 cells assessed as cell growth at 10 uM after 48 hrs by sulforhodamine B assay relative to control; settings: UACC-257, 48 h, read-out: Activity
[9] = system: SR; assay: Cytotoxicity against human SR cells assessed as cell growth at 100 uM after 48 hrs by sulforhodamine B assay relative to control; settings: read-out: Activity
[10] = system: KM12; assay: Cytotoxicity against human KM12 cells assessed as cell growth at 100 uM after 48 hrs by sulforhodamine B assay relative to control; settings: KM12, 48 h, read-out: Activity
[11] = system: TK-10; assay: Cytotoxicity against human TK10 cells assessed as cell growth at 100 uM after 48 hrs by sulforhodamine B assay relative to control; settings: TK-10, 48 h, read-out: Activity
[12] = system: KM12; assay: Cytotoxicity against human KM12 cells assessed as cell growth at 10 uM after 48 hrs by sulforhodamine B assay relative to control; settings: KM12, 48 h, read-out: Activity
[13] = system: TK-10; assay: Cytotoxicity against human TK10 cells assessed as cell growth at 1 uM after 48 hrs by sulforhodamine B assay relative to control; settings: TK-10, 48 h, read-out: Activity
[14] = system: HCT-116; assay: Cytotoxicity against human HCT116 cells assessed as cell growth at 1 uM after 48 hrs by sulforhodamine B assay relative to control; settings: HCT-116, 48 h, read-out: Activity
[15] = system: NCI-H23; assay: Cytotoxicity against human NCI-H23 cells assessed as cell growth at 10 uM after 48 hrs by sulforhodamine B assay relative to control; settings: NCI-H23, 48 h, read-out: Activity
[16] = system: NCI-H460; assay: Cytotoxicity against human NCI-H460 cells assessed as cell growth at 0.1 uM after 48 hrs by sulforhodamine B assay relative to control; settings: NCI-H460, 48 h, read-out: Activity
[17] = system: MCF7; assay: Cytotoxicity against human MCF7 cells assessed as cell growth at 1 uM after 48 hrs by sulforhodamine B assay relative to control; settings: MCF7, 48 h, read-out: Activity
[18] = system: MDA-MB-231; assay: Cytotoxicity against human MDA-MB-231 cells assessed as cell growth at 100 uM after 48 hrs by sulforhodamine B assay relative to control; settings: MDA-MB-231, 48 h, read-out: Activity
[19] = system: OVCAR-3; assay: Cytotoxicity against human OVCAR3 cells assessed as cell growth at 0.01 uM after 48 hrs by sulforhodamine B assay relative to control; settings: OVCAR-3, 48 h, read-out: Activity
[20] = system: HCC 2998; assay: Cytotoxicity against human HCC2998 cells assessed as cell growth at 0.1 uM after 48 hrs by sulforhodamine B assay relative to control; settings: HCC 2998, 48 h, read-out: Activity
[21] = system: Hs-578T; assay: Cytotoxicity against human Hs 578T cells assessed as cell growth at 10 uM after 48 hrs by sulforhodamine B assay relative to control; settings: read-out: Activity
[22] = system: DU-145; assay: Cytotoxicity against human DU145 cells assessed as growth inhibition after 48 hrs by sulforhodamine B assay; settings: DU-145, 48 h
[23] = system: MOLT-4; assay: Cytotoxicity against human MOLT4 cells assessed as cell growth at 1 uM after 48 hrs by sulforhodamine B assay relative to control; settings: MOLT-4, 48 h, read-out: Activity
[24] = system: COLO 205; assay: Cytotoxicity against human COLO205 cells assessed as cell growth at 10 uM after 48 hrs by sulforhodamine B assay relative to control; settings: COLO 205, 48 h, read-out: Activity
[25] = system: NCI-H460; assay: Cytotoxicity against human NCI-H460 cells assessed as growth inhibition after 48 hrs by sulforhodamine B assay; settings: NCI-H460, 48 h
[26] = system: MCF7; assay: Cytotoxicity against human MCF7 cells assessed as cell growth at 100 uM after 48 hrs by sulforhodamine B assay relative to control; settings: MCF7, 48 h, read-out: Activity
[27] = system: PC-3; assay: Cytotoxicity against human PC3 cells assessed as cell growth at 1 uM after 48 hrs by sulforhodamine B assay relative to control; settings: PC-3, 48 h, read-out: Activity
[28] = system: M14; assay: Cytotoxicity against human M14 cells assessed as cell growth at 0.1 uM after 48 hrs by sulforhodamine B assay relative to control; settings: M14, 48 h, read-out: Activity
[29] = system: UO-31; assay: Cytotoxicity against human UO31 cells assessed as cell growth at 1 uM after 48 hrs by sulforhodamine B assay relative to control; settings: UO-31, 48 h, read-out: Activity
[30] = system: K562; assay: Cytotoxicity against human K562 cells assessed as cell growth at 0.01 uM after 48 hrs by sulforhodamine B assay relative to control; settings: K562, 48 h, read-out: Activity
[31] = system: SF-539; assay: Cytotoxicity against human SF539 cells assessed as growth inhibition after 48 hrs by sulforhodamine B assay; settings: SF-539, 48 h
[32] = system: UACC-257; assay: Cytotoxicity against human UACC257 cells assessed as cell growth at 0.01 uM after 48 hrs by sulforhodamine B assay relative to control; settings: UACC-257, 48 h, read-out: Activity
[33] = system: NCI-H322M; assay: Cytotoxicity against human NCI-H322M cells assessed as cell growth at 100 uM after 48 hrs by sulforhodamine B assay relative to control; settings: read-out: Activity
[34] = system: HT-29; assay: Cytotoxicity against human HT-29 cells assessed as growth inhibition after 48 hrs by sulforhodamine B assay; settings: HT-29, 48 h
[35] = system: OVCAR-5; assay: Cytotoxicity against human OVCAR5 cells assessed as cell growth at 10 uM after 48 hrs by sulforhodamine B assay relative to control; settings: OVCAR-5, 48 h, read-out: Activity

Compound: COc1cc(C(=O)/C=C/c2cc(-c3ccc4c(c3)OCO4)n[nH]2)cc(OC)c1OC
- growth at 100 µM [1]: -98%
- growth at 1 µM [2]: 107%
- GI50 [3]: 1810 nM
- LC50 [3]: 8.36 µM
- TGI [3]: 3.89 µM
- growth at 0.01 µM [4]: 99%
- growth at 0.1 µM [5]: 92%
- growth at 0.01 µM [6]: 89%
- growth at 100 µM [7]: -89%
- growth at 10 µM [8]: -2%
- growth at 100 µM [9]: -17%
- growth at 100 µM [10]: -79%
- growth at 100 µM [11]: -96%
- growth at 10 µM [12]: -66%
- growth at 1 µM [13]: 109%
- growth at 1 µM [14]: 86%
- growth at 10 µM [15]: 1%
- growth at 0.1 µM [16]: 100%
- growth at 1 µM [17]: 53%
- growth at 100 µM [18]: -97%
- growth at 0.01 µM [19]: 98%
- growth at 0.1 µM [20]: 100%
- growth at 10 µM [21]: 10%
- GI50 [22]: 2920 nM
- TGI [22]: 9.16 µM
- CC50 ([22]; read-out: LC50 (the source's name)): 31.4 µM
- growth at 1 µM [23]: 94%
- growth at 10 µM [24]: -47%
- GI50 [25]: 1810 nM
- LC50 [25]: 7.84 µM
- TGI [25]: 3.77 µM
- growth at 100 µM [26]: -69%
- growth at 1 µM [27]: 71%
- growth at 0.1 µM [28]: 93%
- growth at 1 µM [29]: 71%
- growth at 0.01 µM [30]: 86%
- GI50 [31]: 1330 nM
- LC50 (concentration killing 50% of cells) [31]: 6.65 µM
- TGI [31]: 2980 nM
- growth at 0.01 µM [32]: 98%
- growth at 100 µM [33]: -95%
- GI50 [34]: 2450 nM
- LC50 [34]: > 100 µM
- TGI [34]: 6.53 µM
- growth at 10 µM [35]: -2%

Source: ChEMBL document CHEMBL4138123, “Design, synthesis and biological evaluation of novel pyrazolochalcones as potential modulators of PI3K/Akt/mTOR pathway and inducers of apoptosis in breast cancer cells” (Eur J Med Chem, 2017)
